PubChem BioAssay AID1259407 (Chemical Carcinogenesis Research Information System (CCRIS), 2018)
Active and inactive are the calls of the source. How the calls were made is not given here.

System: CCRIS mutagenicity, Ames/micronucleus/aberration tests
Experiment: CCRIS mutagenicity studies
Conditions: Test System: AMES SALMONELLA TYPHIMURIUM
[1] = Strain/Indicator: TA98, Metabolic Activation: NONE, Method: STANDARD PLATE
[2] = Strain/Indicator: TA100, Metabolic Activation: NONE, Method: STANDARD PLATE
[3] = Strain/Indicator: TA1535, Metabolic Activation: NONE, Method: STANDARD PLATE
[4] = Strain/Indicator: TA1537, Metabolic Activation: NONE, Method: STANDARD PLATE

Cc1cc(O)ccc1Cl
mutagenic call (Strain/Indicator: TA97, Metabolic Activation: HAMSTER, LIVER, S-9, AROCLOR 1254 (10%), Method: PREINCUBATION): inactive; negative
mutagenic call (Strain/Indicator: TA97, Metabolic Activation: HAMSTER, LIVER, S-9, AROCLOR 1254 (30%), Method: PREINCUBATION): inactive; negative
mutagenic call (Strain/Indicator: TA97, Metabolic Activation: NONE, Method: PREINCUBATION): inactive; negative
mutagenic call (Strain/Indicator: TA97, Metabolic Activation: NONE, Method: STANDARD PLATE): inactive; negative
mutagenic call (Strain/Indicator: TA97, Metabolic Activation: RAT, LIVER, S-9, AROCLOR 1254 (10%), Method: PREINCUBATION): inactive; negative
mutagenic call (Strain/Indicator: TA97, Metabolic Activation: RAT, LIVER, S-9, AROCLOR 1254 (30%), Method: PREINCUBATION): inactive; negative
mutagenic call (Strain/Indicator: TA97, Metabolic Activation: RAT, LIVER, S-9, AROCLOR 1254, Method: STANDARD PLATE): active; positive
mutagenic call (Strain/Indicator: TA98, Metabolic Activation: HAMSTER, LIVER, S-9, AROCLOR 1254 (10%), Method: PREINCUBATION): inactive; negative
mutagenic call (Strain/Indicator: TA98, Metabolic Activation: HAMSTER, LIVER, S-9, AROCLOR 1254 (30%), Method: PREINCUBATION): inactive; negative
mutagenic call (Strain/Indicator: TA98, Metabolic Activation: NONE, Method: PREINCUBATION): inactive; negative
mutagenic call [1]: inactive; negative
mutagenic call (Strain/Indicator: TA98, Metabolic Activation: RAT, LIVER, S-9, AROCLOR 1254 (10%), Method: PREINCUBATION): inactive; negative
mutagenic call (Strain/Indicator: TA98, Metabolic Activation: RAT, LIVER, S-9, AROCLOR 1254 (30%), Method: PREINCUBATION): inactive; negative
mutagenic call (Strain/Indicator: TA98, Metabolic Activation: RAT, LIVER, S-9, AROCLOR 1254, Method: STANDARD PLATE): inactive; negative
mutagenic call (Strain/Indicator: TA100, Metabolic Activation: HAMSTER, LIVER, S-9, AROCLOR 1254 (10%), Method: PREINCUBATION): inactive; negative
mutagenic call (Strain/Indicator: TA100, Metabolic Activation: HAMSTER, LIVER, S-9, AROCLOR 1254 (30%), Method: PREINCUBATION): inactive; negative
mutagenic call (Strain/Indicator: TA100, Metabolic Activation: NONE, Method: PREINCUBATION): inactive; negative
mutagenic call [2]: inactive; negative
mutagenic call (Strain/Indicator: TA100, Metabolic Activation: RAT, LIVER, S-9, AROCLOR 1254 (10%), Method: PREINCUBATION): inactive; negative
mutagenic call (Strain/Indicator: TA100, Metabolic Activation: RAT, LIVER, S-9, AROCLOR 1254 (30%), Method: PREINCUBATION): inactive; negative
mutagenic call (Strain/Indicator: TA100, Metabolic Activation: RAT, LIVER, S-9, AROCLOR 1254, Method: STANDARD PLATE): inactive; negative
mutagenic call (Strain/Indicator: TA104, Metabolic Activation: NONE, Method: STANDARD PLATE): inactive; negative
mutagenic call (Strain/Indicator: TA104, Metabolic Activation: RAT, LIVER, S-9, AROCLOR 1254, Method: STANDARD PLATE): inactive; negative
mutagenic call (Strain/Indicator: TA1535, Metabolic Activation: HAMSTER, LIVER, S-9, AROCLOR 1254 (10%), Method: PREINCUBATION): inactive; negative
mutagenic call (Strain/Indicator: TA1535, Metabolic Activation: HAMSTER, LIVER, S-9, AROCLOR 1254 (30%), Method: PREINCUBATION): inactive; negative
mutagenic call (Strain/Indicator: TA1535, Metabolic Activation: NONE, Method: PREINCUBATION): inactive; negative
mutagenic call [3]: inactive; negative
mutagenic call (Strain/Indicator: TA1535, Metabolic Activation: RAT, LIVER, S-9, AROCLOR 1254 (10%), Method: PREINCUBATION): inactive; negative
mutagenic call (Strain/Indicator: TA1535, Metabolic Activation: RAT, LIVER, S-9, AROCLOR 1254 (30%), Method: PREINCUBATION): inactive; negative
mutagenic call (Strain/Indicator: TA1535, Metabolic Activation: RAT, LIVER, S-9, AROCLOR 1254, Method: STANDARD PLATE): inactive; negative
mutagenic call (Strain/Indicator: TA1537, Metabolic Activation: HAMSTER, LIVER, S-9, AROCLOR 1254 (30%), Method: PREINCUBATION): inactive; negative
mutagenic call (Strain/Indicator: TA1537, Metabolic Activation: NONE, Method: PREINCUBATION): inactive; negative
mutagenic call [4]: inactive; negative
mutagenic call (Strain/Indicator: TA1537, Metabolic Activation: RAT, LIVER, S-9, AROCLOR 1254 (30%), Method: PREINCUBATION): inactive; negative
mutagenic call (Strain/Indicator: TA1537, Metabolic Activation: RAT, LIVER, S-9, AROCLOR 1254, Method: STANDARD PLATE): inactive; negative

CN(C)CCNC(=O)c1cccc2[nH]c(-c3ccccc3)nc12
mutagenic call [4]: active; positive

Cc1cc(C)c2c3c(cc4ccccc42)-c2ccccc2-c13
mutagenic call (Strain/Indicator: TA100, Metabolic Activation: RAT, LIVER, S-9, AROCLOR 1254): active; positive

Nc1snc2ccc([N+](=O)[O-])cc12
mutagenic call [1]: active; positive
mutagenic call (Strain/Indicator: TA98, Metabolic Activation: S-9, Method: STANDARD PLATE): active; positive
mutagenic call [2]: active; positive
mutagenic call (Strain/Indicator: TA100, Metabolic Activation: S-9, Method: STANDARD PLATE): active; positive
mutagenic call [3]: inactive; negative
mutagenic call (Strain/Indicator: TA1535, Metabolic Activation: S-9, Method: STANDARD PLATE): inactive; negative
mutagenic call [4]: active; positive
mutagenic call (Strain/Indicator: TA1537, Metabolic Activation: S-9, Method: STANDARD PLATE): active; positive
